In PMC6260619, “Selective Cytotoxicity of Goniothalamin against Hepatoblastoma HepG2 Cells” (Molecules, 2011):
Read-outs that look alike come from different tables or passages of the source.

Assays:
Assay type in all cases: cell-based, human
HepG2 cells [1] = test: MTT cytotoxicity assay, HepG2; details: Homo sapiens, read-out: IC50 from MTT
Protocol: (§1) HepG2 and Chang cells were plated at 1 × 10^4 cells/well by adding 200 μL of a 5 × 10^4 cells/mL suspension to each well of a 96-well tissue culture plate. The plate was incubated for a sufficient time to assure attachment and 40% to 60% confluency. […] The last row was left as an untreated control. The plates were incubated at 37 °C, 5% CO2, for 24, 48 and 72 hours, respectively. After incubation with compounds, the media was aspirated off and replaced with fresh media. Then, MTT solution (20 μL) for a total volume of 200 μL was added in every well and incubated for 4 to 6 hours at 37 °C with 5% CO2. After that, MTT-containing medium was removed gently and replaced with DMSO (200 μL per well) to mix the formazan crystals until dissolved. The plates were read on microtiter plate reader at 570 nm. For each compound tested, the IC50 (concentration of drug needed to inhibit cell growth by 50%) is generated from the dose-response curves for each cell line.

Chang cells [2] = test: MTT cytotoxicity assay, Chang; details: Homo sapiens, read-out: IC50 from MTT
Protocol: as §1

Chang cells [3] = test: Cell cycle PI analysis by flow cytometry, Chang
Protocol: The effect of goniothalamin on the cell cycle distribution of non-malignant Chang cells was also assessed. […] Accordingly, goniothalamin induced a marked apoptosis in a time-dependent manner at IC50 concentrations. As expected, the increase in the apoptotic population was associated with a concomitant enlargement of the pre-phase population, as observed in cell cycle analysis.
(§2) The treated cells were trypsinized and washed with PBS. After centrifugation, the supernatant was removed. Then, 1 × 10^6 cells were harvested and fixed in ice-cold ethanol (70%). The fixed cells were centrifuged at high speed (180 × g) for 10 minutes to adequately pellet down the cells that were suspended in the ethanol. The pellet was washed by the ice-cold PBS and then centrifuged again at 180 × g for 10 minutes. The final pellet was resuspended with 1 mL of RNase and incubated at 37 °C for 30 minutes. At the end of incubation, DNA binding dye PI (1 mg/mL) was added to give a final concentration of 50 µg/mL. The mixture was incubated at room temperature for 10 min in the dark. Data acquisition and analysis were performed in by flow cytometry FACS Calibur flow cytometer (Becton Dickinson, Franklin Lakes, NJ, USA) using CellQuest 3.3 software.

HepG2 cells [4] = test: Cell cycle PI analysis by flow cytometry, HepG2
Protocol: The ability of a substance to affect specific phases of the cell cycle may provide clues as to its mechanism(s) of action. To determine the effects of goniothalamin on the cell cycle, HepG2 cells were treated with IC50 levels of goniothalamin (determined from the MTT assay) for 24, 48 and 72 hours, respectively. The cells were stained with PI and the DNA contents analyzed by flow cytometry.
as §2

[5] = 24h, at IC50 (goniothalamin 79.10 µM; doxorubicin 0.83 µM)
[6] = 48h, at IC50 (goniothalamin 63.75 µM; doxorubicin 0.41 µM)
[7] = 72h, at IC50 (goniothalamin 35.01 µM; doxorubicin 0.28 µM)
[8] = HepG2, 24h, at IC50 (goniothalamin 9.2 µM; doxorubicin 2.2 µM)
[9] = HepG2, 48h, at IC50 (goniothalamin 8.3 µM; doxorubicin 4.3 µM)
[10] = HepG2, 72h, at IC50 (goniothalamin 4.6 µM; doxorubicin […])

COc1cccc2c1C(=O)c1c(O)c3c(c(O)c1C2=O)C[C@@](O)(C(=O)CO)C[C@@H]3O[C@H]1C[C@H](N)[C@H](O)[C@H](C)O1 [Doxorubicin, reference compound]
IC50 (HepG2 cells [1]; HepG2, 24 h): 2200 nM | IC50 (HepG2 cells [1]; HepG2, 48 h): 4300 nM | IC50 (HepG2 cells [1]; HepG2, 72 h): 1060 nM | IC50 (Chang cells [2]; 24 h): 830 nM | IC50 (Chang cells [2]; 48 h): 410 nM | IC50 (Chang cells [2]; 72 h): 280 nM | G0/G1 (Chang cells [3]; [5]): 50.84 ± 6.03% | G2+M (Chang cells [3]; [5]): 16.36 ± 1.28% | S (Chang cells [3]; [5]): 22.09 ± 0.03% | SubG0/G1 (Chang cells [3]; [5]): 10.71 ± 7.28% | G0/G1 (Chang cells [3]; [6]): 62.43 ± 9.80% | G2+M (Chang cells [3]; [6]): 10.37 ± 0.21% | S (Chang cells [3]; [6]): 15.31 ± 3.10% | SubG0/G1 (Chang cells [3]; [6]): 11.89 ± 6.49% | G0/G1 (Chang cells [3]; [7]): 54.12 ± 1.52% | G2+M (Chang cells [3]; [7]): 8.63 ± 2.17% | S (Chang cells [3]; [7]): 15.19 ± 2.83% | SubG0/G1 (Chang cells [3]; [7]): 22.06 ± 5.17% | G0/G1 (HepG2 cells [4]; [8]): 76.46 ± 3.80% | G2+M (HepG2 cells [4]; [8]): 11.64 ± 3.02% | S (HepG2 cells [4]; [8]): 8.54 ± 0.38% | SubG0/G1 (HepG2 cells [4]; [8]): 3.36 ± 1.02% | G0/G1 (HepG2 cells [4]; [9]): 65.17 ± 12.80% | S (HepG2 cells [4]; [9]): 15.15 ± 10.96% | SubG0/G1 (HepG2 cells [4]; [9]): 5.14 ± 2.53% | G0/G1 (HepG2 cells [4]; [10]): 60.64 ± 0.79% | G2+M (HepG2 cells [4]; [10]): 2.66 ± 0.37% | S (HepG2 cells [4]; [10]): 5.91 ± 0.15% | SubG0/G1 (HepG2 cells [4]; [10]): 30.79 ± 0.57%
